Measured values as given in ChEMBL document CHEMBL5505993, “Identification of a ferritinophagy inducer via sinomenine modification for the treatment of colorectal cancer” (Eur J Med Chem, 2024).
Activity calls are given as the source filed them. The rule behind the calls is not given here.

Experiments:
HCT-116 [1] = assay: Induction of ROS production in human HCT-116 cells incubated for 12 hrs by DCFH-DA probe based flow cytometry; type: functional, cell-based
HCT-116 [2] = assay: Cytotoxicity against human HCT-116 cells assessed as inhibition of cell growth incubated for 24 hrs by CCK-8 assay; type: functional, cell-based; conditions: HCT-116, 24 h
HCT-116 [3] = assay: Cytotoxicity against human HCT-116 cells assessed as inhibition of cell growth incubated for 12 to 48 hrs by CCK-8 assay; type: functional, cell-based; conditions: time 12-48 hrs
HCT-116 [4] = assay: Induction of ferroptosis in human HCT-116 cells assessed as increase in intracellular lipid ROS accumulation at 5 to 20 uM incubated for 12 hrs by C11 BODIPY probe based flow cytometry; type: functional, cell-based; conditions: dose 5-20 µM
HCT-116 [5] = assay: Induction of ferroptosis in human HCT-116 cells assessed as increase in intracellular lipid ROS accumulation at 20 uM incubated for 12 hrs in presence of ferroptosis inhibitor, Ferrostatin-1 by C11 BODIPY probe based flow cytometry; type: functional, cell-based
HCT-116 [6] = assay: Induction of ferroptosis in human HCT-116 cells assessed as increase in 4-HNE level in presence of deferoxamine mesylate at 20 uM by ELISA; type: functional, cell-based
HCT-116 [7] = assay: Induction of ferroptosis in human HCT-116 cells assessed as increase in 4-HNE level in presence of Ferrostatin-1 at 20 uM by ELISA; type: functional, cell-based
HCT-116 [8] = assay: Induction of ferroptosis in human HCT-116 cells assessed as effect on SLC7A11 protein expression at 5 to 20 uM incubated for 12 hrs by Western blotting analysis; type: functional, cell-based; conditions: dose 5-20 µM
HCT-116 [9] = assay: Induction of ferroptosis in human HCT-116 cells assessed as effect on ACSL4 protein expression at 5 to 20 uM incubated for 12 hrs by Western blotting analysis; type: functional, cell-based; conditions: dose 5-20 µM
HCT-116 [10] = assay: Induction of ferroptosis in human HCT-116 cells assessed as effect on AIFM2 protein expression at 5 to 20 uM incubated for 12 hrs by Western blotting analysis; type: functional, cell-based; conditions: dose 5-20 µM
HCT-116 [11] = assay: Induction of ferroptosis in human HCT-116 cells assessed as increase in intracellular ferrous ion level incubated for 12 hrs by ferroOrange probe based flow cytometric analysis; type: functional, cell-based
HCT-116 [12] = assay: Induction of ferroptosis in human HCT-116 cells assessed as increase in intracellular ferrous ion level at 20 uM incubated for 12 hrs in presence of ferroptosis inhibitor, Ferrostatin-1 by ferroOrange probe based flow cytometric analysis; type: functional, cell-based
HCT-116 [13] = assay: Induction of ferroptosis in human HCT-116 cells assessed as increase in ferrous ion level in lysosomes at 20 uM incubated for 12 hrs by ferroOrange probe based confocal fluorescence microscopic analysis; type: functional, cell-based
HCT-116 [14] = assay: Induction of ferroptosis in human HCT-116 cells assessed as increase in ferrous ion level in lysosomes at 20 uM incubated for 12 hrs by Lyso tracker red staining based confocal fluorescence microscopic analysis; type: functional, cell-based
HCT-116 [15] = assay: Induction of ferroptosis in human HCT-116 cells assessed as increase in ferrous ion level in lysosomes at 20 uM incubated for 12 hrs by Hoechst 33342 staining based confocal fluorescence microscopic analysis; type: functional, cell-based
HCT-116 [16] = assay: Induction of autophagy in human HCT-116 cells transfected with mRFP-GFP-LC3B assessed as formation of autolysosomes by measuring reduction in GFP to mRFP fluorescence ratio at 5 to 20 uM incubated for 12 hrs by Lyso tracker red staining based confocal fluorescence microscopic analysis; type: functional, cell-based; conditions: dose 5-20 µM
HCT-116 [17] = assay: Induction of autophagy in human HCT-116 cells transfected with mRFP-GFP-LC3B assessed as colocalization of lysosome with LC3B protein at 20 uM incubated for 12 hrs by Lyso tracker red staining based confocal fluorescence microscopic analysis; type: functional, cell-based
HCT-116 [18] = assay: Induction of autophagy in human HCT-116 cells assessed as increase in intracellular ferrous ion level at 20 uM incubated for 12 hrs by Lyso tracker green staining based confocal microscopic analysis; type: functional, cell-based
HCT-116 [19] = assay: Induction of autophagy in human HCT-116 cells assessed as increase in intracellular ferrous ion level at 20 uM incubated for 12 hrs in presence of autophagy inhibitor, Bafilomycin A1 by Lyso tracker green staining based confocal microscopic analysis; type: functional, cell-based
HCT-116 [20] = assay: Induction of autophagy in human HCT-116 cells assessed as increase in 4-HNE level at 20 uM incubated for 12 hrs by ELISA; type: functional, cell-based
HCT-116 [21] = assay: Induction of autophagy in human HCT-116 cells assessed as increase in 4-HNE level at 20 uM incubated for 12 hrs in presence of autophagy inhibitor, Bafilomycin A1 by ELISA; type: functional, cell-based
HCT-116 [22] = assay: Induction of ferritin autophagy in human HCT-116 cells assessed as upregulation of FTH1 protein expression at 5 to 20 uM incubated for 12 hrs by Western blotting analysis; type: functional, cell-based; conditions: dose 5-20 µM
HCT-116 [23] = assay: Induction of ferritin autophagy in human HCT-116 cells assessed as upregulation of ratio of LC3B-II to LC3B-I protein expression at 5 to 20 uM incubated for 12 hrs by Western blotting analysis; type: functional, cell-based; conditions: dose 5-20 µM
HCT-116 [24] = assay: Antitumor activity against human HCT-116 cells xenografted in BALB/c mouse assessed as reduction in tumor volume at 60 mg/kg,ip administrated daily for 14 days; type: functional, organism-based; conditions: time 14.0 day
HCT-116 [25] = assay: Antitumor activity against human HCT-116 cells xenografted in BALB/c mouse assessed as presence of pyknotic nucleus at 30 mg/kg,ip administrated daily for 14 days by hematoxylin and eosin staining based microscopic analysis; type: functional, organism-based; conditions: time 14.0 day
HCT-116 [26] = assay: Antitumor activity against human HCT-116 cells xenografted in BALB/c mouse assessed as presence of pyknotic nucleus at 60 mg/kg,ip administrated daily for 14 days by hematoxylin and eosin staining based microscopic analysis; type: functional, organism-based; conditions: time 14.0 day
HCT-116 [27] = assay: Antitumor activity against human HCT-116 cells xenografted in BALB/c mouse assessed as tumor cell rupture at 30 mg/kg,ip administrated daily for 14 days by hematoxylin and eosin staining based microscopic analysis; type: functional, organism-based; conditions: time 14.0 day
HCT-116 [28] = assay: Antitumor activity against human HCT-116 cells xenografted in BALB/c mouse assessed as increase in FTH1 expression at 60 mg/kg,ip administrated daily for 14 days by immunohistochemistry; type: functional, organism-based; conditions: time 14.0 day
HCT-116 [29] = assay: Antitumor activity against human HCT-116 cells xenografted in BALB/c mouse assessed as increase in 4-HNE level in tumor at 60 mg/kg,ip administrated daily for 14 days by ELISA; type: functional, organism-based; conditions: time 14.0 day
[30] = Toxicity in BALB/c mouse xenografted with human HCT-116 cells assessed as histopathological changes in heart at 60 mg/kg,ip administrated daily for 14 days by hematoxylin and eosin staining based microscopic analysis; type: organism-based; conditions: in vivo, 336 h, time 14 day
[31] = Toxicity in BALB/c mouse xenografted with human HCT-116 cells assessed as histopathological changes in liver at 30 mg/kg,ip administrated daily for 14 days by hematoxylin and eosin staining based microscopic analysis; type: organism-based; conditions: in vivo, 336 h, time 14 day
[32] = Toxicity in BALB/c mouse xenografted with human HCT-116 cells assessed as histopathological changes in spleen at 60 mg/kg,ip administrated daily for 14 days by hematoxylin and eosin staining based microscopic analysis; type: organism-based; conditions: in vivo, 336 h, time 14 day
[33] = Toxicity in BALB/c mouse xenografted with human HCT-116 cells assessed as histopathological changes in kidney at 30 mg/kg,ip administrated daily for 14 days by hematoxylin and eosin staining based microscopic analysis; type: organism-based; conditions: in vivo, 336 h, time 14 day

C=C(Cl)C(=O)NCCCCCCCCCCCC(=O)Oc1c(OC)ccc2c1[C@@]13CCN(C)[C@@H](C2)[C@H]1C=C(OC)C(=O)C3
Activity (HCT-116 [1]): Active
IC50 (HCT-116 [2]): 11.2 µM
Activity (HCT-116 [3]): Dose-Dependent Effect
Activity (HCT-116 [4]): Active
Activity (HCT-116 [5]): Active
Activity (HCT-116 [6]): inactive
Activity (HCT-116 [7]): inactive
Activity (HCT-116 [8]): inactive
Activity (HCT-116 [9]): inactive
Activity (HCT-116 [10]): inactive
Activity (HCT-116 [11]): Dose-Dependent Effect
Activity (HCT-116 [12]): inactive
Activity (HCT-116 [13]): Active
Activity (HCT-116 [14]): Active
Activity (HCT-116 [15]): Active
Activity (HCT-116 [16]): Active
Activity (HCT-116 [17]): Active
Activity (HCT-116 [18]): Active
Activity (HCT-116 [19]): inactive
Activity (HCT-116 [20]): Active
Activity (HCT-116 [21]): inactive
Activity (HCT-116 [22]): Active
Activity (HCT-116 [23]): Active
Activity (HCT-116 [24]): Active
Activity (HCT-116 [25]): Active
Activity (HCT-116 [26]): Active
Activity (HCT-116 [27]): Active
Activity (HCT-116 [28]): Active
Activity (HCT-116 [29]): Active
Activity [30]: Non-Toxic
Activity [31]: Non-Toxic
Activity [32]: Non-Toxic
Activity [33]: Non-Toxic
